ChEMBL document CHEMBL4483862, “Open-source discovery of chemical leads for next-generation chemoprotective antimalarials” (2018)

System: Plasmodium berghei
Test: Luciferase/luciferin-expressing antifolate-resistant parasites were used to infect a culture of HepG2 cells that were pre-incubated with compounds. Infected hepatocytes emit light due to the luciferase reaction. Assay results are presented as the percent inhibition of light emission compared to control. […]
Assay type: functional
Settings: sporozoite; for IC90: read-out: LUCIFERASE INFECTION ASSAY - IC90
[1] = read-out: LUCIFERASE INFECTION ASSAY - IC50

Cc1ccsc1/C=N/Nc1ncc(Cl)cc1Cl
IC50 (FFLUC_HILL_SLOPE 11.7, FFLUC_R_SQUARED 0.18, PBLUC_HILL_SLOPE 22.2, PBLUC_R_SQUARED 0.267, read-out: LUCIFERASE INFECTION ASSAY - IC50): 9.19 µM | IC90: > 10 µM

COC(CNC(=S)c1c(-c2ccc(Cl)cc2)c2c3n(c(-c4cccc(S(=O)(=O)N5CCOCC5)c4)nn13)CCCC2)OC
IC50 (FFLUC_HILL_SLOPE 2.83, FFLUC_R_SQUARED 0.688, HEPG2TOX_HILL_SLOPE 16.1, HEPG2TOX_R_SQUARED 0.632, PBLUC_HILL_SLOPE 13, PBLUC_R_SQUARED 0.649, read-out: LUCIFERASE INFECTION ASSAY - IC50): 0.383 µM | IC90: 0.453 µM

O=C(COc1cccc(Br)c1)N/N=C/C1=C(N2CCOCC2)C(=C/c2ccc(Cl)cc2)/CC1
IC50 [1]: > 10 µM | IC90: > 10 µM

Cc1cc(C(C)(C)C)cc(C)c1CCN1C(=O)CSC1c1cccnc1 (configuration not stated)
IC50 [1]: > 10 µM | IC90: > 10 µM

CCc1cccc2c(C3=CCN(c4ccc([N+](=O)[O-])cn4)CC3)c[nH]c12
IC50 (HEPG2TOX_HILL_SLOPE 2.16, 2.30, HEPG2TOX_R_SQUARED 0.931, 0.732, PBLUC_HILL_SLOPE 2.67, 4.10, PBLUC_R_SQUARED 0.259, 0.404, read-out: LUCIFERASE INFECTION ASSAY - IC50): 5.92 µM | IC90: > 10 µM

Cc1ccc(S(=O)(=O)N2CCN(C(=O)C3CCN(c4nc5ccccc5o4)CC3)CC2)cc1C
IC50 (HEPG2TOX_HILL_SLOPE 0.685, HEPG2TOX_R_SQUARED 0.962, PBLUC_HILL_SLOPE 3.7, PBLUC_R_SQUARED 0.71, read-out: LUCIFERASE INFECTION ASSAY - IC50): 1.45 µM | IC90: 2.62 µM

CC(C)(C)c1cc(C(=O)Nc2ccc(Br)c(Cl)c2)n(Cc2ccccc2)n1
IC50 (FFLUC_HILL_SLOPE 13.4, FFLUC_R_SQUARED 0.471, HEPG2TOX_HILL_SLOPE 9.89, HEPG2TOX_R_SQUARED 0.67, PBLUC_HILL_SLOPE 12.6, PBLUC_R_SQUARED 0.293, read-out: LUCIFERASE INFECTION ASSAY - IC50): > 7.39 µM | IC90: > 7.39 µM

FC(F)Sc1ccc(NC(=S)NC2CCCc3ccccc32)cc1 (configuration not stated)
IC50 [1]: > 10 µM | IC90: > 10 µM

CC1=C(C(=O)OCc2ccccc2)C(c2ccc(C(F)(F)F)cc2)CC(=O)N1 (configuration not stated)
IC50 [1]: > 8.48 µM | IC90: > 8.48 µM

CCCS(=O)(=O)c1cnc(C2COc3ccccc3O2)nc1N (configuration not stated)
IC50 (FFLUC_HILL_SLOPE 3.81, FFLUC_R_SQUARED 0.729, PBLUC_HILL_SLOPE 0.615, PBLUC_R_SQUARED 0.774, read-out: LUCIFERASE INFECTION ASSAY - IC50): 0.0301 µM | IC90: 1.07 µM

NC(Cc1ccc(F)cc1)c1csc(NC(=O)Nc2ccc(OC(F)(F)F)cc2)n1 (configuration not stated)
IC50 (HEPG2TOX_HILL_SLOPE 9.82, HEPG2TOX_R_SQUARED 0.883, PBLUC_HILL_SLOPE 24.7, PBLUC_R_SQUARED 0.388, read-out: LUCIFERASE INFECTION ASSAY - IC50): 5.2 µM | IC90: 5.69 µM

FC(F)(F)c1cccc(NC(=S)NC2CC3C=CC2C3)c1 (configuration not stated)
IC50 (PBLUC_HILL_SLOPE 0.542, PBLUC_R_SQUARED 0.315, read-out: LUCIFERASE INFECTION ASSAY - IC50): 4.71 µM | IC90: > 10.6 µM

Cn1c(Sc2ncc([N+](=O)[O-])s2)n[nH]c1=O
IC50 (FFLUC_HILL_SLOPE 1.35, FFLUC_R_SQUARED 0.48, HEPG2TOX_HILL_SLOPE 8.97, HEPG2TOX_R_SQUARED 0.707, PBLUC_HILL_SLOPE 6.36, PBLUC_R_SQUARED 0.781, read-out: LUCIFERASE INFECTION ASSAY - IC50): 5.14 µM | IC90: 7.26 µM

CC(=O)c1ccccc1OCCOC(=O)/C(C#N)=C/c1cc(C)n(CCC(C)C)c1C
IC50 (HEPG2TOX_HILL_SLOPE 0.948, HEPG2TOX_R_SQUARED 0.676, PBLUC_HILL_SLOPE 14.8, PBLUC_R_SQUARED 0.615, read-out: LUCIFERASE INFECTION ASSAY - IC50): 1.48 µM | IC90: 1.72 µM

Cc1nn(C)c(Cl)c1C=C(C(=O)NCCc1ccccc1)C(=O)NCCc1ccccc1
IC50 [1]: > 10 µM | IC90: > 10 µM

CC(C)(C)c1cc(C(=O)N/N=C/c2ccc([N+](=O)[O-])s2)[nH]n1
IC50 (PBLUC_HILL_SLOPE 1.97, PBLUC_R_SQUARED 0.294, read-out: LUCIFERASE INFECTION ASSAY - IC50): 3.6 µM | IC90: > 10.3 µM

Nc1ccc(-c2cn3c(-c4cccc(O)c4)cnc3cn2)cn1
IC50 (PBLUC_HILL_SLOPE 9.28, PBLUC_R_SQUARED 0.463, read-out: LUCIFERASE INFECTION ASSAY - IC50): 9.03 µM | IC90: > 10.9 µM

Cc1cccc(C(=O)Nc2nc3ccccn3c2C(=O)NC2CCCCC2)c1
IC50 (HEPG2TOX_HILL_SLOPE 2.01, HEPG2TOX_R_SQUARED 0.621, PBLUC_HILL_SLOPE 5.25, PBLUC_R_SQUARED 0.58, read-out: LUCIFERASE INFECTION ASSAY - IC50): 1.91 µM | IC90: 2.91 µM

CC(C)(C)c1ccc(/C=C2\CCc3c2nc2ccccc2c3C(=O)OCC(=O)NNC(=O)c2ccccc2F)cc1
IC50 (PBLUC_HILL_SLOPE 2.93, PBLUC_R_SQUARED 0.289, read-out: LUCIFERASE INFECTION ASSAY - IC50): 2.58 µM | IC90: 5.46 µM

CC1CCN(/C(=N/S(=O)(=O)c2ccc(-n3nc(C(F)(F)F)cc3-c3cccs3)cc2)N/N=C/c2ccc(Cl)cc2)CC1
IC50 (FFLUC_HILL_SLOPE 12.3, FFLUC_R_SQUARED 0.48, read-out: LUCIFERASE INFECTION ASSAY - IC50): > 5.2 µM | IC90: > 5.2 µM

FC(F)(F)c1cnc(/C=N/Nc2ncc(C(F)(F)F)cc2Cl)c(Cl)c1
IC50 [1]: 2.69 µM | IC90: 3.13 µM

COc1ccc(-c2nc3ccc(NC(=O)Nc4ccc(OC)c(OC)c4)cn3n2)cc1
IC50 [1]: > 10 µM | IC90: > 10 µM

CCCCC(CC)C(=O)Nc1nc2ccccn2c1C(=O)NC1CCCCC1 (configuration not stated)
IC50 (PBLUC_HILL_SLOPE 8.64, PBLUC_R_SQUARED 0.333, read-out: LUCIFERASE INFECTION ASSAY - IC50): 8.01 µM | IC90: > 8.58 µM

CNC(=O)c1ccc(CN(C2CC2)S(=O)(=O)c2ccc(Br)s2)cc1
IC50 (PBLUC_HILL_SLOPE 3.54, PBLUC_R_SQUARED 0.19, read-out: LUCIFERASE INFECTION ASSAY - IC50): 5.83 µM | IC90: > 10 µM

Cc1noc(C)c1S(=O)(=O)N(C)Cc1ccc(-c2ccc(Cl)cc2)o1
IC50 [1]: > 10 µM | IC90: > 10 µM

Cn1c(N)c(C(=O)COC(=O)c2cc(-c3ccccc3)nc3ccc(Br)cc23)c(=O)n(C)c1=O
IC50 [1]: > 10 µM | IC90: > 10 µM

O=C(Nc1nnc[nH]1)C1(c2ccc(F)cc2)CC1
IC50 [1]: > 10 µM | IC90: > 10 µM

CC1CCN(Cc2nc3scc(-c4ccccc4)c3c(=O)n2CC(=O)N2CCc3ccccc32)CC1
IC50 [1]: > 10 µM | IC90: > 10 µM

CCOc1ccc(-c2nc(C(=O)Nc3ncccc3O)cs2)cc1
IC50 (PBLUC_HILL_SLOPE 16.6, PBLUC_R_SQUARED 0.386, read-out: LUCIFERASE INFECTION ASSAY - IC50): 3.36 µM | IC90: 3.84 µM

CNc1nc2cnc(Nc3cccc(C)c3)cc2n1Cc1ccc(OC)c(OC)c1
IC50 (HEPG2TOX_HILL_SLOPE 6.56, HEPG2TOX_R_SQUARED 0.678, read-out: LUCIFERASE INFECTION ASSAY - IC50): > 10 µM | IC90: > 10 µM

CC(C)Cc1ccc(C(C)NC(=O)c2ccc(CNC(N)=O)cc2)cc1 (configuration not stated)
IC50 (HEPG2TOX_HILL_SLOPE 1.82, HEPG2TOX_R_SQUARED 0.295, read-out: LUCIFERASE INFECTION ASSAY - IC50): > 10 µM | IC90: > 10 µM

O=S(=O)(Nc1ccc(Cl)cc1)c1cc(NC(=S)Nc2ccc(Oc3ccccc3)cc2)ccc1N1CCCCC1
IC50 (FFLUC_HILL_SLOPE 10.3, FFLUC_R_SQUARED 0.0303, PBLUC_HILL_SLOPE 13.4, PBLUC_R_SQUARED 0.215, read-out: LUCIFERASE INFECTION ASSAY - IC50): > 10 µM | IC90: > 10 µM

O=C(OCc1ncc(-c2ccccc2)o1)c1cc([N+](=O)[O-])ccc1N1CCOCC1
IC50 (HEPG2TOX_HILL_SLOPE 0.712, HEPG2TOX_R_SQUARED 0.947, PBLUC_HILL_SLOPE 1.1, PBLUC_R_SQUARED 0.629, read-out: LUCIFERASE INFECTION ASSAY - IC50): 0.465 µM | IC90: 3.4 µM

c1ccc(-c2nn(-c3ccccc3)cc2CSc2nncs2)cc1
IC50 (PBLUC_HILL_SLOPE 1.24, PBLUC_R_SQUARED 0.639, read-out: LUCIFERASE INFECTION ASSAY - IC50): 5.72 µM | IC90: > 10 µM

Cc1cc(C(=O)CSc2nc(N)nc(N)n2)c(C)n1CCC1=CCCCC1
IC50 [1]: > 10 µM | IC90: > 10 µM

O=C(CCc1cccnc1)Nc1ccc(OC(F)(F)F)cc1
IC50 [1]: > 10 µM | IC90: > 10 µM

CC(C(=O)NC(N)=O)N(C)Cc1ccc(OCc2ccc(Cl)cc2)cc1 (configuration not stated)
IC50 (HEPG2TOX_HILL_SLOPE 2.51, HEPG2TOX_R_SQUARED 0.952, PBLUC_HILL_SLOPE 1.26, PBLUC_R_SQUARED 0.93, read-out: LUCIFERASE INFECTION ASSAY - IC50): 1.73 µM | IC90: 9.89 µM

CC(=O)NCCC(=O)N(Cc1ccccc1)c1nc2c(C(C)C)cccc2s1
IC50 (PBLUC_HILL_SLOPE 286, PBLUC_R_SQUARED 0.442, read-out: LUCIFERASE INFECTION ASSAY - IC50): 5.98 µM | IC90: 6.02 µM

COc1cc(-c2cc(NCc3cccc(C(F)(F)F)c3)ncn2)cc(OC)c1OC
IC50 (FFLUC_HILL_SLOPE 0.883, FFLUC_R_SQUARED 0.362, PBLUC_HILL_SLOPE 0.944, PBLUC_R_SQUARED 0.459, read-out: LUCIFERASE INFECTION ASSAY - IC50): 0.859 µM | IC90: > 7.87 µM

O=C(Nc1ccc(Cl)c(Cl)c1)Nc1c(-c2ccccc2)nc2ccccn12
IC50 (HEPG2TOX_HILL_SLOPE 7.35, HEPG2TOX_R_SQUARED 0.457, PBLUC_HILL_SLOPE 10, PBLUC_R_SQUARED 0.727, read-out: LUCIFERASE INFECTION ASSAY - IC50): 3.63 µM | IC90: 4.52 µM

CC(Sc1nc(=O)c2c3c(sc2[nH]1)CCCC3)C(=O)Nc1ccc2ccccc2c1 (configuration not stated)
IC50 (HEPG2TOX_HILL_SLOPE 0.165, HEPG2TOX_R_SQUARED 0.248, read-out: LUCIFERASE INFECTION ASSAY - IC50): > 10 µM | IC90: > 10 µM
